{"source": "paper PMC2717426", "about": "“The effect of exogenous glucagon-like peptide-1 on the glycaemic response to small intestinal nutrient in the critically ill: a randomised double-blind placebo-controlled cross over study” (Critical Care, 2009)", "key": {"[1]": {"assay": "Plasma glucagon concentration (radioimmunoassay) during GLP-1 infusion", "format": "in vivo, critically ill patients", "settings": "GLP-1 1.2 pmol/kg/min i.v.; trapezoidal rule; mean ± SEM, n = 7"}, "[2]": {"assay": "Tolerability of the study infusion", "format": "in vivo, critically ill patients", "settings": "GLP-1 1.2 pmol/kg/min i.v. over 270 minutes; all 7 patients", "from_the_text": "(§1) Patients were studied on two consecutive days, in which they received intravenous GLP-1 or placebo in a randomised, double-blind fashion. Twelve hours prior to the study, a naso-duodenal feeding catheter was inserted and confirmed via abdominal x-ray. On each study day enteral feeding was ceased at least four hours prior to the commencement of the study. Exogenous insulin (Actrapid, Novo-Nordisk, Copenhagen, Denmark) infusion was ceased at least two hours before the commencement of the study drug. Patient weight was provided by a relative and/or estimated by a dietician. […] The study investigators were blinded to each infusion, which were concealed in a glass bottle covered by black plastic. […] At t = 30 minute Ensure® (Abbott, Melbourne, Australia), a mixed nutrient liquid (64% carbohydrate, 1 kcal/ml), was delivered continuously into the small intestine at a rate of 1.5 ml/min for four hours (i.e. t = 30 to 270 min)."}, "[3]": {"assay": "Plasma insulin (ELISA) and insulin/glucose ratio during GLP-1 infusion", "format": "in vivo, critically ill patients", "settings": "GLP-1 1.2 pmol/kg/min i.v., mean ± SEM, n = 7", "from_the_text": "Patients were studied on two consecutive days, in which they received intravenous GLP-1 or placebo in a randomised, double-blind fashion. Twelve hours prior to the study, a naso-duodenal feeding catheter was inserted and confirmed via abdominal x-ray. On each study day enteral feeding was ceased at least four hours prior to the commencement of the study. Exogenous insulin (Actrapid, Novo-Nordisk, Copenhagen, Denmark) infusion was ceased at least two hours before the commencement of the study drug. Patient weight was provided by a relative and/or estimated by a dietician. […] The study investigators were blinded to each infusion, which were concealed in a glass bottle covered by black plastic. […]\nBlood glucose was measured at the bedside using a portable glucometer (Medisense Optimum, Abbott, Melbourne, Australia). […] Plasma insulin was measured by ELISA (Diagnostics Systems Laboratories, Webster, Texas, USA) with an inter-assay coefficient of variation (CV) of 6.2%.\nData are presented as mean ± standard error of the mean. Area under the curve (AUC) was calculated using the trapezoidal rule. […] The ratios of insulin/glucose were calculated, as described previously. […] The difference between intervention and placebo was assessed using paired samples; Student's paired t-test and repeated measures analysis of variance. Data were evaluated for potential carry over effect. […]"}, "[4]": {"settings": "GLP-1 infusion at 1.2 pmol/kg/min; postoperative patients with type 2 diabetes; cited from earlier work", "from_the_text": "Hyperglycaemia in critically ill patients, not previously known to have diabetes, is associated with poorer outcomes than in patients with pre-existing diabetes. […] Insulin infusions were ceased two hours before the commencement of the study to ensure clearance of exogenous insulin. Given t ..."}, "[5]": {"assay": "Total plasma GLP-1 concentration (radioimmunoassay) during GLP-1 infusion", "format": "in vivo, critically ill patients", "from_the_text": "as §1\n(§2) Blood glucose was measured at the bedside using a portable glucometer (Medisense Optimum, Abbott, Melbourne, Australia). Blood was collected, separated by centrifugation and the resulting plasma was stored at -70° until assayed for hormone concentrations. Plasma insulin was measured by ELISA (Diagnostics Systems Laboratories, Webster, Texas, USA) with an inter-assay coefficient of variation (CV) of 6.2%.\n(§3) Data are presented as mean ± standard error of the mean. Area under the curve (AUC) was calculated using the trapezoidal rule. […] The ratios of insulin/glucose were calculated, as described previously. Statistical analyses were performed using SPSS (Version 15.0, Chicago, Illinois, USA). Distribution and sensitivity analysis, using nonparametric analyses, allowed parametric testing of data. The difference between intervention and placebo was assessed using paired samples; Student's paired t-test and repeated measures analysis of variance. Data were evaluated for potential carry over effect. The null hypothesis was rejected at the 0.05 significance."}, "[6]": {"assay": "Blood glucose response to small intestinal nutrient infusion during intravenous GLP-1 infusion (bedside glucometer)", "format": "in vivo, critically ill patients", "experimental": "Seven critically ill adult patients (four males, three females, age range 28 to 76 years), predicted to remain mechanically ventilated for more than 48 hours, were studied. Exclusion criteria included pregnancy, pre-existing diabetes, contraindication to enteral feeding or post-pyloric catheter insertion, and previous surgery on the oesophagus, stomach or duodenum.\nas §1, §2, §3"}, "[7]": {"settings": "GLP-1 1.2 pmol/kg/min i.v., total GLP-1, radioimmunoassay, mean ± SEM, n = 7"}, "[8]": {"settings": "GLP-1 1.2 pmol/kg/min i.v. t = 0-270 min, intra-duodenal Ensure 1.5 kcal/min t = 30-270 min, mean ± SEM, n = 7"}}}
{"substance": "GLP-1-(7–36) amide", "values": [{"measurement": "Plasma glucagon AUC0–270 minutes", "setting": "[1]", "value": "22,786 ± 6040 pmol/l min"}, {"measurement": "Tolerability of the study", "setting": "[2]", "value": "well tolerated"}, {"measurement": "Plasma insulin AUC0–270 min", "setting": "[3]; entire study period, trapezoidal rule", "value": "16,203 ± 5193 mU/l min"}, {"measurement": "Plasma insulin, t = 270 min", "setting": "[3]; intra-duodenal nutrient, ELISA", "value": "79 ± 21", "unit": "mU/l"}, {"measurement": "Effect on fasting glycaemia", "setting": "[4]", "value": "achieved fasting normoglycaemia"}, {"measurement": "Tolerability", "setting": "[4]", "value": "well tolerated"}, {"measurement": "Plasma GLP-1 AUC0–270 min", "setting": "[5]; GLP-1 1.2 pmol/kg/min i.v. for 270 min, trapezoidal rule, mean ± SEM, n = 7", "value": "31,659 ± 4203 pmol/l min"}, {"measurement": "Time after which steady state plasma GLP-1 concentrations were achieved", "setting": "[5]; GLP-1 1.2 pmol/kg/min i.v. infusion", "value": 30, "unit": "min"}, {"measurement": "Plasma GLP-1 concentration, t = 30 min", "setting": "[5]; [7]", "value": "124 ± 15", "unit": "pmol/L"}, {"measurement": "Plasma GLP-1 concentration, t = 90 min", "setting": "[5]; [7]", "value": "131 ± 13", "unit": "pmol/L"}, {"measurement": "Effect on blood glucose prior to nutrient infusion, t = 30 min", "setting": "[6]; GLP-1 1.2 pmol/kg/min i.v. from t = 0, before start of small intestinal nutrient, vs placebo", "value": "no effect"}, {"measurement": "Blood glucose concentration, t = 180 min", "setting": "[6]; [8]", "value": "9.3 ± 0.6", "unit": "mmol/L"}, {"measurement": "Peak blood glucose", "setting": "[6]; [8]", "value": "10.1 ± 0.7", "unit": "mmol/L"}, {"measurement": "Overall glycaemic response, blood glucose AUC30–270 min", "setting": "[6]; GLP-1 1.2 pmol/kg/min i.v., intra-duodenal Ensure 1.5 kcal/min t = 30-270 min, trapezoidal rule, mean ± SEM, n = 7", "value": "2077 ± 144", "unit": "mmol·min/L"}, {"measurement": "Baseline blood glucose concentration, t = 0 min", "setting": "[6]; GLP-1 study day, prior to infusion, arterial blood, glucometer, mean ± SEM, n = 7", "value": "7.5 ± 0.4", "unit": "mmol/L"}]}
